Laboratory results as given in patent publication US8778966B2, “Quinolinone derivatives as PARP and tank inhibitors” (Janssen Pharmaceutica, NV, priority 2007, dated 2014).

How the values were obtained:
HCT116 cells = test: Mitotic arrest assay on HCT116 cells (phospho-histone H3 Ser10); assay type: cell-based, human; conditions: Homo sapiens, HCT-116, HCT116 cells; lowest active dose; read-out: Mitotic arrest HCT116 LAD (converted)
In short: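 Seeded overnight, then compound-treated 6 h at 37 °C (≤0.1% DMSO); fixed, stained with Alexa Fluor 488 anti-phospho-H3 (Ser10) plus Hoechst 33342, imaged on InCell Analyzer 1000. Blank-subtracted signal divided by SD (sigma), triplicate; value is lowest dose giving sigma >5 (LAD).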

PC-3 cells = test: Antiproliferative activity, Alamar Blue assay, PC-3 cells; assay type: cell-based, human; conditions: Homo sapiens, PC-3, PC3 cells, Alamar Blue; read-out: PC3 antiproliferative activity pIC50 (converted)
In short: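 PC-3 cells seeded at 4.5×10^3 cells/ml, left to adhere 24 hr, then exposed to compound for 4 days. Resazurin (Alamar Blue) added for a further 24 hrs at 37° C; fluorescence read at 540/590 nm. Viability as % of untreated control, mean of 3 wells; IC50 by probit analysis, reported as pIC50.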

IC50 (PC-3 cells) [µM]	Compound	minimal effective concentration (HCT116 cells) [µM]
1	CCc1cc2ccc(C(C)(C#N)Cc3cc(Cl)nc(N(C)C)c3)cc2[nH]c1=O (stereo not shown) [Compound 323]	0.3
3.16	CCc1cc2ccc(C(C)(C#N)Cc3cccc(NC)n3)cc2[nH]c1=O (stereo not shown) [Compound 339]	1
3.16	CCc1cc2ccc(C(C)(C#N)Cc3ccc4c(c3)OC(F)(F)O4)cc2[nH]c1=O (stereo not shown) [Compound 346]	1
0.501	CCc1cc2ccc(C(C)(C#N)Cc3cc(Cl)nc(OC)c3)cc2[nH]c1=O (stereo not shown) [Compound 351]	0.1
0.631	CCc1cc2ccc(C(C)(C#N)Cc3cc(Cl)nc(C)n3)cc2[nH]c1=O (stereo not shown) [Compound 365]	0.3
0.794	CCc1cc2ccc(C(C)(C#N)Cc3cc(Br)cc4c3OCC4)cc2[nH]c1=O (stereo not shown) [Compound 378]	0.1
1.26	CCc1cc2ccc(C(C)(C#N)Cc3cccc4[nH]ccc34)cc2[nH]c1=O (stereo not shown) [Compound 379]	0.3

The remaining lines, values behind:

Compound	IC50 (PC-3 cells) [µM]	minimal effective concentration (HCT116 cells) [µM]
CCc1cc2ccc(C(C)(C#N)Cc3cc(N(C)C)nc(C#N)n3)cc2[nH]c1=O (stereo not shown) [Compound 317]	5.01	1
CCc1cc2ccc(C(C)(C#N)Cc3nc(C#N)cc(N(C)C)n3)cc2[nH]c1=O (stereo not shown) [Compound 318]	0.631	0.3
CCc1cc2ccc(C(C)(C#N)Cc3cc(C#N)nc(C)n3)cc2[nH]c1=O (stereo not shown) [Compound 319]	3.98	0.3
CCc1cc2ccc(C(C)(C#N)Cc3cc(N(C)C)nc(N(C)C)n3)cc2[nH]c1=O (stereo not shown) [Compound 320]	0.631	0.3
CCc1cc2ccc(C(C)(C#N)Cc3cc(N(C)C)nc(C)n3)cc2[nH]c1=O (stereo not shown) [Compound 322]	2.51	1
CCc1cc2ccc(C(C)(C#N)Cc3cc(N(C)C)nc(OC)n3)cc2[nH]c1=O (stereo not shown) [Compound 354]	6.31	1
CCc1cc2ccc(C(C)(C#N)Cc3nc(OC)cc(N(C)C)n3)cc2[nH]c1=O (stereo not shown) [Compound 355]	0.398	0.1
CCc1cc2ccc(C(C)(C#N)CN3CCC(c4ccccc4)CC3)cc2[nH]c1=O (stereo not shown) [Compound 375]	1	0.3
CCc1cc2ccc(C(C)(C#N)CN3CCN(c4ccc(C#N)cn4)CC3)cc2[nH]c1=O (stereo not shown) [Compound 377]	0.794	0.3
Cc1cc2ccc([C@](C)(C#N)[C@H]3CCc4ccccc43)cc2[nH]c1=O [Compound 387]	5.01	3
Cc1cc2ccc(C(C)(C#N)C3CCc4ccccc43)cc2[nH]c1=O (stereo not shown) [Compound 392]	0.794	0.3
Cc1cc2ccc(C(C)(C#N)C3CCCc4ccccc43)cc2[nH]c1=O (stereo not shown) [Compound 404]	3.98	1
Cc1cc2ccc(C(C)(C#N)Cc3cccc(/C=C/CCO)c3)cc2[nH]c1=O (stereo not shown) [Compound 409]	0.501	0.3
